Reference: PMC11201660 (Biomolecules, 2024)

Experiments:
[1] = target: T1, human AChE (Homo sapiens, UniProt P22303); assay: biochemical; type: biochemical
T1 construct: gift from Dr. Zoran Radić, Skaggs School of Pharmacy and Pharmaceutical Sciences, UCSD

[2] = target: human BChE (Homo sapiens, UniProt P06276); assay: biochemical; type: biochemical
[3] = MTS cytotoxicity assay, 24-h exposure of liver cell line; details: human, HepG2 cells, IC50 HepG2 (cytotoxicity), tested 3 to 400 μM
[4] = system: HepG2; assay: as above; details: read-out: IC50 HepG2 (cytotoxicity), tested 3 to 400 μM

T1 sequence (P22303 32-614): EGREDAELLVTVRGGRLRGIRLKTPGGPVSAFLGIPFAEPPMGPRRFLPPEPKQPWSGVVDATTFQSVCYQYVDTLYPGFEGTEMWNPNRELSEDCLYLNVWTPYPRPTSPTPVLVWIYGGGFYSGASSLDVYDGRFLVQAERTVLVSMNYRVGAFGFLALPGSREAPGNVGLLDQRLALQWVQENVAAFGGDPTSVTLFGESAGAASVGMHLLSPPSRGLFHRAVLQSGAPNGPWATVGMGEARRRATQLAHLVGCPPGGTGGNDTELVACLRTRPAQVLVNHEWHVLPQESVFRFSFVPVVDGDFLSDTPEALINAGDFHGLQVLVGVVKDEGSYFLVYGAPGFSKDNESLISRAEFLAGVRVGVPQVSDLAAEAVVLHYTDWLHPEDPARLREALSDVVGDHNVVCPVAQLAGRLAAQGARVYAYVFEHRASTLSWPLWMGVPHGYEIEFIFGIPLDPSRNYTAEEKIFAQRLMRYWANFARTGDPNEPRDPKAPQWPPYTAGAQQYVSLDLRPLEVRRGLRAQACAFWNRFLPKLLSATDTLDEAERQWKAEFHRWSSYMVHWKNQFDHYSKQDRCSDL
human BChE, sequence (P06276 29-602): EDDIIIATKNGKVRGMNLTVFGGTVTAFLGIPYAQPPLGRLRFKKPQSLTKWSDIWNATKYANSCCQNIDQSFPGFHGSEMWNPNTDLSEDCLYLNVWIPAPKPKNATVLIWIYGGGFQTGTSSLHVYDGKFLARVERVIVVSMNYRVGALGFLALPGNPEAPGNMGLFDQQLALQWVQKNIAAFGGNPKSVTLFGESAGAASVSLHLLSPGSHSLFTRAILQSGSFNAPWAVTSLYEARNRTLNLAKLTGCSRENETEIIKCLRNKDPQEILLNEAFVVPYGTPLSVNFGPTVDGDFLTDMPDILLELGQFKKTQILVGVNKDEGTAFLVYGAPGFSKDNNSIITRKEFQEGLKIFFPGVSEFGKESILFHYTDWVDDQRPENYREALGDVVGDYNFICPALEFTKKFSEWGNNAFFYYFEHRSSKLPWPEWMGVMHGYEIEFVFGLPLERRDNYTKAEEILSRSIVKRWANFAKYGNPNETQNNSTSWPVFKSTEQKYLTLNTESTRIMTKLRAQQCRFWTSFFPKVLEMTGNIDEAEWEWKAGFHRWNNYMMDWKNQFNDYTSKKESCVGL

Q: What does the source list for `N#Cc1ccccc1/C=C\c1ccc(/C=N/O)s1` [cis,syn-5, 2-((Z)-2-(5-((E)-(hydroxyimino)methyl)thiophen-2-yl)vinyl)benzonitrile]?
A: Ki [1]: 112 ± 21 µM; Ki [2]: 17 ± 2 µM; IC50 at 24 h [3]: ≥ 400 µM

Q: With `Cc1ccc(/C=C/c2ccsc2/C=N/O)cc1` [trans,syn-18, (E)-3-((E)-4-methylstyryl)thiophene-2-carbaldehyde oxime] as the molecule, how does the Ki [1] read?
A: 59 ± 39 µM

Q: What about the “inhibition selectivity (AChE vs BChE)” value [2] of the same molecule?
A: selective AChE inhibitors

Q: And the IC50 at 24 h [3]?
A: > 400 µM

Q: Which results are given for `O=[N+]([O-])c1ccc(-n2cc(C=NO)nn2)cc1` [compound 3, 1-(4-nitrophenyl)-1H-1,2,3-triazole-4-carbaldehyde oxime]?
A: Ki [1]: 280 ± 30 µM; Ki [2]: 303 ± 66 µM; IC50 at 24 h [3]: > 400 µM

Q: For `N#Cc1ccc(/C=C\c2ccsc2/C=N\O)cc1` [cis,anti-21, 4-((Z)-2-(2-((Z)-(hydroxyimino)methyl)thiophen-3-yl)vinyl)benzonitrile], which Ki [1] is on record?
A: 187 ± 54 µM

Q: What about the Ki [2] of the same molecule?
A: 53 ± 10 µM

Q: And the IC50 at 24 h [3]?
A: 182 ± 13 µM

Q: Which Ki [2] does the source give for `Cc1ccc(/C=C\c2ccsc2/C=N/O)cc1` [cis,syn-18, (E)-3-((Z)-4-methylstyryl)thiophene-2-carbaldehyde oxime] here?
A: 86 ± 32 µM

Q: And the IC50 at 24 h [3]?
A: 269 ± 38 µM

Q: For `Cc1ccc(/C=C\c2ccoc2/C=N/O)cc1` [cis,syn-14, (E)-3-((Z)-4-methylstyryl)furan-2-carbaldehyde oxime], which Ki [1] is on record?
A: 627 ± 245 µM

Q: What about the Ki [2] of the same molecule?
A: 93 ± 30 µM

Q: And the IC50 at 24 h [3]?
A: 182 ± 32 µM

Q: Which results are given for `Cc1ccc(/C=C/c2ccc(/C=N/O)o2)cc1` [trans,syn-10, (E)-5-((E)-4-methylstyryl)furan-2-carbaldehyde oxime]?
A: Ki [1]: 111 ± 45 µM; Ki [2]: 38 ± 9.8 µM; IC50 at 24 h [3]: ≤ 100 µM; IC50 [4]: 105 ± 4 µM

Q: With `Cc1ccccc1/C=C/c1oc2ccc3ccccc3c2c1/C=N/O` [trans,syn-9, (E)-2-((E)-2-methylstyryl)naphtho[2,1-b]furan-1-carbaldehyde oxime] as the molecule, how does the Ki [1] read?
A: 172 ± 29 µM

Q: What about the Ki [2] of the same molecule?
A: 303 ± 65 µM

Q: What about the IC50 at 24 h [3] of the same molecule?
A: > 400 µM

Q: What does the source list for `Cc1ccc(/C=C\c2ccsc2/C=N\O)cc1` [cis,anti-18, (Z)-3-((Z)-4-methylstyryl)thiophene-2-carbaldehyde oxime]?
A: Ki [2]: 760 ± 122 µM; IC50 at 24 h [3]: > 400 µM

Q: Which Ki [2] does the source give for `O/N=C/c1occc1/C=C\c1ccc(Cl)cc1` [cis,syn-16, (E)-3-((Z)-4-chlorostyryl)furan-2-carbaldehyde oxime] here?
A: 119 ± 44 µM

Q: And the IC50 at 24 h [3]?
A: ≤ 100 µM

Q: And the IC50 [4]?
A: 65 ± 13 µM

Q: For `N#Cc1ccc(/C=C\c2ccsc2/C=N/O)cc1` [cis,syn-21, 4-((Z)-2-(2-((E)-(hydroxyimino)methyl)thiophen-3-yl)vinyl)benzonitrile], which Ki [1] is on record?
A: 171 ± 68 µM

Q: What about the Ki [2] of the same molecule?
A: 59 ± 8 µM

Q: What about the IC50 at 24 h [3] of the same molecule?
A: ≤ 100 µM

Q: And the IC50 [4]?
A: 118 ± 46 µM

Q: For `O/N=C\c1ccc(/C=C/c2ccco2)o1` [trans,anti-6, (Z)-5-((E)-2-(furan-2-yl)vinyl)furan-2-carbaldehyde oxime], which Ki [2] is on record?
A: 123 ± 23 µM

Q: And the IC50 at 24 h [3]?
A: ≥ 400 µM

Q: For `ON=Cc1cn(Cc2ccc(Cl)cc2)nn1` [compound 2, 1-(4-chlorobenzyl)-1H-1,2,3-triazole-4-carbaldehyde oxime], which Ki [1] is on record?
A: 267 ± 92 µM

Q: And the Ki [2]?
A: 24 ± 2.9 µM

Q: And the “inhibition selectivity (AChE vs BChE)” value [2]?
A: selective BChE inhibitors

Q: And the IC50 at 24 h [3]?
A: > 400 µM

Q: What does the source list for `O/N=C/c1occc1/C=C/c1ccc(Cl)cc1` [trans,syn-16, (E)-3-((E)-4-chlorostyryl)furan-2-carbaldehyde oxime]?
A: Ki [1]: 217 ± 160 µM; IC50 at 24 h [3]: > 400 µM

Q: Which results are given for `ON=Cc1cn(Cc2ccc(F)cc2)nn1` [compound 1, 1-(4-fluorobenzyl)-1H-1,2,3-triazole-4-carbaldehyde oxime]?
A: Ki [1]: 271 ± 29 µM; Ki [2]: 503 ± 32 µM; IC50 at 24 h [3]: > 400 µM

Q: For `CCCn1cc(C=Cc2ccc(C=NO)s2)nn1` [trans-7], which Ki [1] is on record?
A: 147 ± 43 µM

Q: What about the Ki [2] of the same molecule?
A: 49 ± 11 µM

Q: And the IC50 at 24 h [3]?
A: > 400 µM

Q: With `COc1ccc(/C=C/c2ccoc2/C=N\O)cc1` [trans,anti-15, (Z)-3-((E)-4-methoxystyryl)furan-2-carbaldehyde oxime] as the molecule, how does the “inhibition of human AChE (in words)” value [1] read?
A: poor inhibitors

Q: And the “inhibition of human BChE (in words)” value [2]?
A: poor inhibitors

Q: What about the IC50 at 24 h [3] of the same molecule?
A: > 400 µM

Q: Which “inhibition of human AChE (in words)” value [1] does the source give for `COc1ccc(/C=C\c2csc(/C=N/O)c2)cc1` [cis,syn-19′, (E)-4-((Z)-4-methoxystyryl)thiophene-2-carbaldehyde oxime] here?
A: poor inhibitors

Q: And the “inhibition of human BChE (in words)” value [2]?
A: poor inhibitors

Q: What about the IC50 at 24 h [3] of the same molecule?
A: > 400 µM

Q: For `O=[N+]([O-])c1ccc(-n2cc(C=Cc3ccc(C=NO)s3)nn2)cc1` [trans-8, 5-(2-(1-(4-nitrophenyl)-1H-1,2,3-triazol-4-yl)vinyl)thiophene-2-carbaldehyde oxime], which Ki [1] is on record?
A: 199 ± 38 µM

Q: What about the Ki [2] of the same molecule?
A: 143 ± 22 µM

Q: And the IC50 at 24 h [3]?
A: > 400 µM

Q: Which results are given for `N#Cc1ccc(/C=C\c2ccoc2/C=N/O)cc1` [cis,syn-17, 4-((Z)-2-(2-((E)-(hydroxyimino)methyl)furan-3-yl)vinyl)benzonitrile]?
A: Ki [1]: 544 ± 105 µM; IC50 at 24 h [3]: ≤ 100 µM; IC50 [4]: 120 ± 6 µM

Q: Which Ki [1] does the source give for `O/N=C/c1ccc(/C=C\c2ccc(Cl)cc2)o1` [cis,syn-12, (E)-5-((Z)-4-chlorostyryl)furan-2-carbaldehyde oxime] here?
A: 68 ± 37 µM

Q: What about the Ki [2] of the same molecule?
A: 147 ± 37 µM

Q: And the IC50 at 24 h [3]?
A: 226 ± 10 µM

Q: What does the source list for `Cc1ccc(/C=C/c2ccc(/C=N\O)o2)cc1` [trans,anti-10, (Z)-5-((E)-4-methylstyryl)furan-2-carbaldehyde oxime]?
A: Ki [1]: 180 ± 40 µM; IC50 at 24 h [3]: > 400 µM

Q: What does the source list for `O/N=C\c1ccc(/C=C/c2ccccc2O)s1` [trans,anti-4, (Z)-5-((E)-2-hydroxystyryl)thiophene-2-carbaldehyde oxime]?
A: Ki [1]: 258 ± 90 µM; Ki [2]: 6.5 ± 0.5 µM; IC50 at 24 h [3]: 191 ± 21 µM

Q: With `N#Cc1ccc(/C=C/c2ccoc2/C=N/O)cc1` [trans,syn-17, 4-((E)-2-(2-((E)-(hydroxyimino)methyl)furan-3-yl)vinyl)benzonitrile] as the molecule, how does the Ki [1] read?
A: 66 ± 24 µM

Q: What about the “inhibition selectivity (AChE vs BChE)” value [2] of the same molecule?
A: selective AChE inhibitors

Q: And the IC50 at 24 h [3]?
A: > 400 µM

Q: For `Cc1ccc(/C=C/c2ccoc2/C=N/O)cc1` [trans,syn-14, (E)-3-((E)-4-methylstyryl)furan-2-carbaldehyde oxime], which Ki [2] is on record?
A: 122 ± 47 µM

Q: What about the IC50 at 24 h [3] of the same molecule?
A: > 400 µM
